In patent US6201147A, “Process for the resolution of esters of arylalkylcarboxylic acids” (BASF Aktiengesellschaft, priority 1998, dated 2001):

What was measured:
[1] = target: T1, Candida antarctica lipase (CAL-B, Chirazyme L-2) (Moesziomyces antarcticus, UniProt P41365); assay: Lipase-catalyzed transesterification with n-hexanol in toluene; format: biochemical; details: for equilibrium constant (value in brackets): transesterification of ethyl esters with n-hexanol, calculated according to Anthonsen et al.
T1 construct: purchased Boehringer Mannheim, Penzberg, Germany
T1 sequence (P41365 26-342): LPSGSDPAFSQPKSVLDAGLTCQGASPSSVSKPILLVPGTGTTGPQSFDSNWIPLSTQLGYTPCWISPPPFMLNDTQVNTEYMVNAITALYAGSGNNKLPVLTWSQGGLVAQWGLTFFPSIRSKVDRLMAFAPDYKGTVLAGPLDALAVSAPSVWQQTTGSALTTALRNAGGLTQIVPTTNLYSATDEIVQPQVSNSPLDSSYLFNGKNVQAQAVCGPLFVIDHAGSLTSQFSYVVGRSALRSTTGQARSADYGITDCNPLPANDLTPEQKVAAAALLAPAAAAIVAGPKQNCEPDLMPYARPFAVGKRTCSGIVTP
Procedure: (§1) If not described otherwise, the ^1 H-NMR spectra were recorded at 250.1 and 500.1 MHz and the ^13 C-NMR spectra at 62.9 and 125.7 MHz in CDCl3 using tetramethylsilane as an internal standard. In cases in which both the racemate and the enatiomeric pure compounds were synthesized, the racemate was used for the full characterization of the compound. […] The gas-chromatography (=GC) analyses were carried out with an Optima 5 column (25 m×0.25 mm; Macherey & Nagel, Duren, Germany) for the determination of the conversion and purity and with a heptakis-(2,3-di-O-acetyl-6-O-TBDMS) -β-cyclodextrin column (25 m×0.25 mm, Prof. W. A. Konig, University of Hamburg, Germany) for the determination of the enantiomeric excess. The immobilized lipase used was Candida antarctica lipase (Chirazyme L-2, c.-f., C2, 5000 U/g) from Boehringer Mannheim, Penzberg, Germany, if not described otherwise. The absolute configuration of the biotransformation products was determined by means of comparison with optically pure standards, which were prepared from the commercially obtainable optically pure carboxylic acids. The enantiomeric excess was calculated by comparison with literature values. The enantioselectivity was determined using the formula E=[ln{(1-c)×(1-ees)}]/[ln{(1-c)×(1+ees)}],
Lipase-catalyzed transesterification: 100 μl of the vinyl esters (0.52 mmol) and 560 μl of n-hexanol (4.49 mmol) were […] stirrer. The reaction was started by addition of 100 mg of CAL-B lipase (500 U) (see Scheme II). Samples were taken from the reaction, diluted with toluene and the lipase was removed by means of centrifugation. The samples were analyzed by GC using the Optima 5 column. After ending the reaction by filtration, product and unreacted substrate were purified by flash chromatography. The enantiomeric purities were determined by means of the specific rotation. In the case of the substrates (±)-3, (±) -4 and (±) -6, the optical purity was additionally determined by means of chiral GC. The ethyl esters were correspondingly reacted as a comparison experiment (see Scheme III). The hydrolysis of the ethyl esters was carried out as a further comparison experiment (see Scheme III).

[2] = target: T1, Candida antarctica lipase (CAL-B, Chirazyme L-2); assay: Hydrolysis of the ethyl esters with pH-statting; format: biochemical; details: hydrolysis in phosphate buffer 50 mM, pH 7.5, 40° C., calculated according to Chen et al.
Procedure: as §1
The hydrolysis of the ethyl esters was carried out with pH-statting. In general, 1 mmol of substrate (6-8) was taken up at 40° C. in 20 ml of phosphate buffer (50 mM, pH 7.5). 200 mg of CAL-B (1000 U) were added at the start of the reaction. The pH was kept constant through the reaction using 0.1 N NaOH. After consumption of base indicated a marked conversion of the substrate, unused substrate was removed by means of extraction with heptane. […] The organic phases were dried using Na2 SO4 and the enantiomeric excess was determined for all compounds by means of the specific rotation and for (±)-6 additionally by means of chiral GC.

lipase CAL-B = target: T2, lipase CAL-B (Moesziomyces antarcticus, UniProt P41365); assay: Lipase-catalyzed transesterification with methanol in toluene; format: biochemical, Candida antarctica; details: 40° C., 5 hours, calculated from conversion and eep
T2 construct: purchased Boehringer Mannheim
T2 sequence (P41365 26-342): T1 sequence (P41365 26-342)
Procedure: The racemic ibuprofen vinyl ester (209 mg, 0.90 mmol) and methanol (240 mg, 7.5 mmol) were disolved in 8 ml toluene and stirred at 40° C. The reaction was started by adding 416 mg of lipase CAL-B (L-2, c.f., C2, lyo.; Boehringer Mannheim). After 5 hours, the reaction was completed by filtering off the lipase, and the reaction mixture was analyzed by gas chromatography in a chiral column (2,3 di-O-methyl-6-O-pentyl-ε-cyclodextrin). The product and unreacted substrate were purified by flash chromatography on silica gel (developer: ligroin/diethyl ether 35:1). Conversion (GC): 40.5%; Yields: ibuprofen methyl ester 64 mg (0.29 mmol; 32%), eep =76% (GC); ibuprofen vinyl ester 98 mg (0.42 mmol, 47%), ees =[…] (calculated from conversion and eep). An E value of 12 is calculated from conversion and eep.

[3] = transesterification with n-hexanol in toluene, 40° C., CAL-B, calculated according to Chen et al.

Compound	E (enantioselectivity) ([1]; transesterification with n-hexanol in toluene at room temperature (about 23° C.))	E (enantioselectivity) [1, 3]	equilibrium constant (value in brackets) ([1]; 40° C.)	E (enantioselectivity) [2]	E value (lipase CAL-B)
C=COC(=O)CC(C)c1ccccc1 (racemic) [(±)-5, Vinyl (±)-3-phenylbutyrate]	23	13	–	–	–
C=COC(=O)C(C)c1ccccc1 (racemic) [(±)-4, Vinyl (±)-2-phenylpropionate]	–	26	–	–	–
CCOC(=O)C(CC)c1ccccc1 (racemic) [(±)-6, Ethyl (±)-2-phenylbutyrate]	–	5.7	110	3.7	–
C=COC(=O)C(C)c1ccc(CC(C)C)cc1 (racemic) [ibuprofen vinyl ester]	–	–	–	–	12
CCOC(=O)C(C)c1ccccc1 (racemic) [(±)-7, Ethyl (±)-2-phenylpropionate]	–	6.8	123	3.5	–
C=COC(=O)C(CC)c1ccccc1 (racemic) [(±)-3, Vinyl (±)-2-phenylbutyrate]	–	> 100	–	–	–
CCOC(=O)CC(C)c1ccccc1 (racemic) [(±)-8, Ethyl (±) -3-phenylbutyrate]	–	4.9	135	9	–
